Among the data in US10711004B2 (Genentech, Inc., priority 2018, dated 2020) are IC50 values, retold here.

The assay deals with human TRPA1 channel (Homo sapiens (Human), UniProt O75762). Description: hTRPA1 CHO Ca2+ FLIPR Tetra assay, block of cinnamaldehyde induced calcium influx. The class given is cell-based. Conditions: CHO cells expressing TRPA1, Hill coefficient fixed to 1.5. A digest of the protocol:
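Calcium-dye-loaded TRPA1-expressing CHO cells in HBSS/20 mM HEPES pH 7.4, 0.02% BSA were preincubated with compound for 10 or 90 min at room temperature. Calcium influx evoked by roughly an EC50 concentration of cinnamaldehyde was then read on FLIPR Tetra; IC50 came from curve fits with a fixed Hill coefficient.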

Where [1] appears, read: read-out: hTRPA1 IC50 (10 min), compounds incubated 10 minutes at room temperature before cinnamaldehyde agonist.
The mark [2] stands for this setting: read-out: hTRPA1 IC50 (90 min), compounds incubated 90 minutes at room temperature before cinnamaldehyde agonist.

Structures are written as SMILES. Read-outs that look alike come from different tables or passages of the source.

As usually defined, the IC50 is the concentration at which inhibition is half-maximal.

human TRPA1 channel, sequence (O75762 whole entry): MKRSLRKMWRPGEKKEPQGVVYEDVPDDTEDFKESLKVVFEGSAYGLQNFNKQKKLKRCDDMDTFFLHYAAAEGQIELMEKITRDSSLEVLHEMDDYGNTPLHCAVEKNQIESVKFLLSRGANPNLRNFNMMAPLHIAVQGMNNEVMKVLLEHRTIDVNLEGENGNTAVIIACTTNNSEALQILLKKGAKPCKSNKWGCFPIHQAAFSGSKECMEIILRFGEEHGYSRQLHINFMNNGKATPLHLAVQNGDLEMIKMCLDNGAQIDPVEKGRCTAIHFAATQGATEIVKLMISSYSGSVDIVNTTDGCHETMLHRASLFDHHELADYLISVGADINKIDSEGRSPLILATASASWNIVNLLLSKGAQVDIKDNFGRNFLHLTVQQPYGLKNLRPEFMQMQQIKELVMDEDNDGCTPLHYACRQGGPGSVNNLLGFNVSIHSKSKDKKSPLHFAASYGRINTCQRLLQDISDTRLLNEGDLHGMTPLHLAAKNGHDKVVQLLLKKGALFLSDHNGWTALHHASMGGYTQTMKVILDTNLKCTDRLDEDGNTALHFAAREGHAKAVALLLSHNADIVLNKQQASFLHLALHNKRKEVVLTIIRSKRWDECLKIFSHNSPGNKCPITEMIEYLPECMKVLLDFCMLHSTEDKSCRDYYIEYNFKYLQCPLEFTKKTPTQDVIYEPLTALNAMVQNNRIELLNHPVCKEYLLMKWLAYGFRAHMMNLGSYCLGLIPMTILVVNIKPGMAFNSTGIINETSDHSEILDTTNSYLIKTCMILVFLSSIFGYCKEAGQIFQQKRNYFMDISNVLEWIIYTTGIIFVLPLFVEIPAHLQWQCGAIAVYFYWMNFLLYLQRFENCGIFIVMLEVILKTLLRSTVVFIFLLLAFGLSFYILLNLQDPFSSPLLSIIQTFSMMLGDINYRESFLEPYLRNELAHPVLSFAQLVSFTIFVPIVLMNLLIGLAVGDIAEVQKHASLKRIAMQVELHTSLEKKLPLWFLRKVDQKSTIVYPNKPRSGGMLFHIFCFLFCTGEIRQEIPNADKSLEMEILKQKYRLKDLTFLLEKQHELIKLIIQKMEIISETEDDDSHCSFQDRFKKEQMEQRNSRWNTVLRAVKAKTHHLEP

On to `Cn1cnc2ncn(Cc3nc([C@H]4[C@@H]5C=C(c6ccc7[nH]ncc7c6)C[C@@H]54)no3)c(=O)c21` [Example Compound 268, 7-methyl-1-[[3-[(1S,5S,6R)-3-(1H-indazol-5-yl)-6-bicyclo[3.1.0]hex-2-enyl]-1,2,4-oxadiazol-5-yl]methyl]purin-6-one], for which the IC50 was determined as 20 nM under setting [1] and 12 nM under setting [2].

Regarding `Cn1cnc2ncn(Cc3nc([C@H]4[C@@H]5C=C(c6ccc(F)cc6F)C[C@@H]54)no3)c(=O)c21` [Example Compound 269, 7-methyl-1-[[3-[(1S,5S,6R)-3-(2,4-difluorophenyl)-6-bicyclo[3.1.0]hex-2-enyl]-1,2,4-oxadiazol-5-yl]methyl]purin-6-one], the IC50 is, setting by setting: under setting [1], 6.96 nM; under setting [2], 4.6 nM.

Turning to `Cn1cnc2ncn(Cc3nc([C@H]4[C@@H]5C=C(c6cc(F)cc(F)c6)C[C@@H]54)no3)c(=O)c21` [Example Compound 270, 7-methyl-1-[[3-[(1S,5S,6R)-3-(3,5-difluorophenyl)-6-bicyclo[3.1.0]hex-2-enyl]-1,2,4-oxadiazol-5-yl]methyl]purin-6-one], the IC50 runs as follows: under setting [1], 13 nM; under setting [2], 2.4 nM.

Regarding `Cn1cnc2ncn(Cc3nc([C@H]4[C@@H]5CN(c6cc(F)c(Cl)c(F)c6)C[C@@H]54)no3)c(=O)c21` [Example Compound 271, 7-methyl-1-[[3-[(1S,5R)-3-(4-chloro-3,5-difluoro-phenyl)-3-azabicyclo[3.1.0]hexan-6-yl]-1,2,4-oxadiazol-5-yl]methyl]purin-6-one], the IC50 reads like this: under setting [1], 34.7 nM; under setting [2], 11 nM.

`O=c1c2ccc(Cl)nc2ncn1Cc1nc([C@H]2[C@@H]3CN(c4cccc(F)c4)C[C@@H]32)no1` [Example Compound 272, 7-chloro-3-[[3-[(1R,5S)-3-(3-fluorophenyl)-3-azabicyclo[3.1.0]hexan-6-yl]-1,2,4-oxadiazol-5-yl]methyl]pyrido[2,3-d]pyrimidin-4-one]: the IC50 reads like this: under setting [1], 58.3 nM; under setting [2], 35 nM.

Take `O=c1c2cccc(=O)n2ccn1Cc1nc([C@@H]2[C@H]3C=C(c4ccccc4)C[C@H]32)no1` [Example Compound 275, 2-[[3-[(1R,5R,6S)-3-phenyl-6-bicyclo[3.1.0]hex-2-enyl]-1,2,4-oxadiazol-5-yl]methyl]pyrido[1,2-a]pyrazine-1,6-dione]: the IC50 by setting is: under setting [1], 11.9 nM; under setting [2], 6.5 nM.

Take `Cn1cnc2ncn(Cc3nc([C@H]4[C@@H]5CN(c6ccc(Cl)cc6F)C[C@@H]54)no3)c(=O)c21` [Example Compound 276, 7-methyl-1-[[3-[(1S,5R)-3-(4-chloro-2-fluorophenyl)-3-azabicyclo[3.1.0]hexan-6-yl]-1,2,4-oxadiazol-5-yl]methyl]purin-6-one]: the IC50 by setting is: under setting [1], 15 nM; under setting [2], 7.4 nM.

Consider `Cn1cnc2ncn(Cc3nc([C@@H]4[C@H]5C=C(c6ccc(-c7cnco7)cc6)C[C@H]54)no3)c(=O)c21` [Example Compound 277, 7-methyl-1-[[3-[(1R,5R,6S)-3-(4-oxazol-5-ylphenyl)-6-bicyclo[3.1.0]hex-2-enyl]-1,2,4-oxadiazol-5-yl]methyl]purin-6-one], for which the IC50 was 16.8 nM (compounds incubated 10 minutes at room temperature before cinnamaldehyde agonist) and 11 nM (compounds incubated 90 minutes at room temperature before cinnamaldehyde agonist).

In the case of `Cn1cnc2ncn(Cc3nc([C@H]4[C@@H]5C=C(c6ccc7ncsc7c6)C[C@@H]54)no3)c(=O)c21` [Example Compound 278, 7-methyl-1-[[3-[(1S,5S,6R)-3-(1,3-benzothiazol-6-yl)-6-bicyclo[3.1.0]hex-2-enyl]-1,2,4-oxadiazol-5-yl]methyl]purin-6-one], the IC50 reads like this: under setting [1], 15.8 nM; under setting [2], 3.1 nM.

`O=c1c2cccnc2cnn1Cc1nc([C@H]2[C@@H]3CN(c4ccc5ncsc5c4)C[C@@H]32)no1` [Example Compound 279, 6-[[3-[(1R,5S)-3-(1,3-benzothiazol-6-yl)-3-azabicyclo[3.1.0]hexan-6-yl]-1,2,4-oxadiazol-5-yl]methyl]pyrido[2,3-d]pyridazin-5-one]: the IC50 was 11.2 nM under setting [1] and 5.6 nM under setting [2].

On to `Cn1cnc2ncn(Cc3nc([C@@H]4[C@H]5C=C(c6cccc(-c7cnco7)c6)C[C@H]54)no3)c(=O)c21` [Example Compound 280, 7-methyl-1-[[3-[(1R,5R,6S)-3-(3-oxazol-5-ylphenyl)-6-bicyclo[3.1.0]hex-2-enyl]-1,2,4-oxadiazol-5-yl]methyl]purin-6-one], for which the IC50 runs as follows: under setting [1], 46.1 nM; under setting [2], 40 nM.

On to `Cn1cnc2ncn(Cc3nc([C@@H]4[C@H]5C=C(c6ccc(C(F)F)cc6)C[C@H]54)no3)c(=O)c21` [Example Compound 281, 7-methyl-1-[[3-[(1R,5R,6S)-3-[4-(difluoromethyl)phenyl]-6-bicyclo[3.1.0]hex-2-enyl]-1,2,4-oxadiazol-5-yl]methyl]purin-6-one], for which the IC50 runs as follows: under setting [1], 67.9 nM; under setting [2], 35 nM.

Consider `Cn1cnc2ncn(Cc3nc([C@@H]4[C@H]5C=C(c6cccc(F)c6F)C[C@H]54)no3)c(=O)c21` [Example Compound 282, 7-methyl-1-[[3-[(1R,5R,6S)-3-(2,3-difluorophenyl)-6-bicyclo[3.1.0]hex-2-enyl]-1,2,4-oxadiazol-5-yl]methyl]purin-6-one], for which the IC50 runs as follows: (read-out: hTRPA1 IC50 (10 min), compounds incubated 10 minutes at room temperature before cinnamaldehyde agonist, listed as 282) 16.9 nM; (read-out: hTRPA1 IC50 (90 min), compounds incubated 90 minutes at room temperature before cinnamaldehyde agonist, listed as 282) 3.1 nM.

`Cn1cnc2ncn(Cc3nc([C@@H]4[C@H]5C=C(c6ccc(C#N)c(F)c6)C[C@H]54)no3)c(=O)c21` [Example Compound 283, 2-fluoro-4-[(1R,5R,6S)-6-[5-[(7-methyl-6-oxo-purin-1-yl)methyl]-1,2,4-oxadiazol-3-yl]-3-bicyclo[3.1.0]hex-2-enyl]benzonitrile]: the IC50 is, setting by setting: under setting [1], 19.6 nM; under setting [2], 5.3 nM.
